{"source": "patent US9023767B2", "about": "“γ-Secretase substrates and methods of use” (Memorial Sloan-Kettering Cancer Center, priority 2009, dated 2015)", "key": {"γ-secretase [1]": {"biological_target": "T1, γ-secretase (Homo sapiens (Human), UniProt P49768)", "assay": "In vitro γ-secretase assay, solubilized γ-secretase, ECL", "format": "biochemical", "conditions": "Sb4 substrate", "from_the_text": "The γ-secretase cleaved Aβ product derived from C100Flag substrate was detected by a pair of antibodies (biotinylated 4G8 and ruthenylated G2-10*) while Sb4 cleaved product was detected by ruthenylated G2-10* alone (FIG. 10a) and quantified using electrochemiluminescence (ECL) technology.\nAn in vitro assay was based on the one previously reported by Li et al. (2000), except we utilized Sb4 substrate that eliminated the need for biotinylated antibody. […] All assays incorporate ruthenylated G2-10* antibody to detect 40-site cleavage of APP or recombinant Sb4 substrate and quantitated activity by measuring ECL."}, "γ-secretase [2]": {"biological_target": "γ-secretase (Homo sapiens (Human), UniProt P49768+Q92542)", "assay": "Photoaffinity labeling of γ-secretase in HeLa membrane by Aβ17-23BPA20-biotin", "format": "binding", "conditions": "inhibitor at 2 μM", "experimental": "FIG. 4. […] Various concentrations of inhibitor were incubated with APP substrate (S4) or Notch peptide substrate containing the C-terminal biotinylated transmembrane domain of Notch1 and HeLa cell membrane in the presence of 0.25% CHAPSO. Aβ40 was detected by G2-10 antibody. The cleaved Notch product was detected by Val1744 antibody that specifically recognizes the cleaved product between Gly1743 and Val1744. Activities are expressed as percentage relative to reading that was produced in DMSO control. […] Various concentrations of S4 substrate were incubated with HeLa membrane in fixed concentrations of inhibitor as indicated. The double reciprocal velocity (1/v) and substrate concentrations (1/S) are plotted to determine the type of inhibition. […] Assays were conducted as described in FIG. 4A. […] The labeled samples were solubilized with RIPA buffer. Biotinylated proteins were captured with streptavidin-agarose and probed by immunoblotting using antibodies against biotin, PS1-CTF, PS1-NTF, Nicastrin, PEN-2 and APH-1a. HeLa cell membrane proteins were directly loaded onto lanes indicated by an arrow in the PEN-2 and APH-1a blots as positive controls. […] Upper panel: PS1-NTF; Lower panel: PS1-CTF.\nThe labeled proteins were eluted with 2×SDS sample buffer and analyzed with Western blotting using antibodies against the components of γ-secretase complex. Protein concentration was determined with the Dc protein assay kit (Bio-Rad)\nAfter the photolyzed membranes were solubilized, biotinylated proteins were captured, eluted and analyzed by western blotting with antibodies against biotin, PS1, nicastrin, PEN-2 and APH-1."}, "γ-secretase [3]": {"biological_target": "T1, γ-secretase", "assay": "Exo-cell γ-secretase assay, HeLa cells, Sb4 substrate", "format": "cell-based", "experimental": "Therefore, HeLa cells were first incubated with Sb4 substrate, as well as CHAPSO detergent as depicted in FIG. 14c. Cells were seeded at their indicated concentration in 96-well plates and allowed to attach overnight. The next day, media was removed and cells were washed once with PBS. Fresh media was then added containing 0.25% CHAPSO detergent, Sb4 substrate to a final concentration of 1 μM, and 1% DMSO or γ-secretase inhibitor. This was incubated for 2.5 hours at 37° C. Media was removed and cell debris was pelleted from this media for 5 min. at 3,500 rpm. Supernatant was then added to ruthenylated G2-10* antibody that recognizes cleaved product, but not uncleaved substrate. This was incubated for an additional 2 hours at room temperature. Finally, magnetic streptavidin beads were added to a final concentration of 80 μg/ml and incubated for 30 min. at room temperature. Assay buffer was added to the samples and γ-secretase-mediated cleavage of substrate was monitored using electrochemiluminescence (ECL) (Li et al., 2000). (FIG. 14c).\n(§1) The potency of two structurally different GSIs was assayed in four unique γ-secretase activity assays. IC50 values were determined from the dose response curves using a non-linear regression analysis in the Prism software. An in vitro assay was based on the one previously reported by Li et al. (2000), except we utilized Sb4 substrate that eliminated the need for biotinylated antibody. The cell-based activity assay used N2A mouse neuroblastoma cells stably over-expressing APP and a biotinylated 4G8 antibody that binds the C-terminus of the amyloid beta peptide. The exo-cell assay incubated HeLa cells simultaneously with GSI, Sb4 substrate as well as 0.25% CHAPSO detergent prior to detecting substrate cleavage. Finally, the extended exo-cell assay first incubated HeLa cells with GSI for 24 hrs. Subsequently, the cells were washed 1× in PBS and then incubated with Sb4 substrate and CHAPSO detergent. The assay was then carried out exactly as described for the original exo-cell method. All assays incorporate ruthenylated G2-10* antibody to detect 40-site cleavage of APP or recombinant Sb4 substrate and quantitated activity by measuring ECL. The latter assays were performed as previously described (Li et al., 2000). In the in vitro assay, recombinant Sb4 substrate was incubated for 2.5 hours at 37° C. in pH 7.0 PIPES buffer in the presence of 0.25% CHAPSO detergent and solubilized γ-secretase at a final concentration of 40 ng/ul. The detection of cleaved substrate was determined using ruthenylated G2-10* antibody. Since the Sb4 substrate is biotinylated additional 6E10 biotinylated antibody used in earlier assays is not required. In the cell-based assay, N2A mouse neuroblastoma cells that stably overexpress amyloid precursor protein were incubated with γ-secretase inhibitors in a final concentration of 1% DMSO for 24 hrs. Following incubation, the supernatant was removed from the cells and assayed for Aβ40, the cleaved APP product, using ruthenylated G2-10* antibody as well as biotinylated 4G8 antibody."}, "γ-secretase [4]": {"biological_target": "T1, γ-secretase", "assay": "Extended exo-cell γ-secretase assay, HeLa cells", "format": "cell-based", "experimental": "as §1, with “In the cell-based assay, N2A mouse neuroblastoma cells that stably overexpress amyloid precursor protein were incubated with γ-secretase inhibitors in a final concentration of 1% DMSO for 24 hrs. Following incubation, the supernatant was removed from the cells and assayed for Aβ40, the cleaved APP product, using ruthenylated G2-10* antibody as well as biotinylated 4G8 antibody.” left out\nThe exo-cell assay was adapted to monitor real-time γ-secretase activity and inhibition over extended times of pretreatment regimens. […] This modified, extended treatment exo-cell assay is capable of quantifying remaining γ-secretase activity following drug treatment on virtually any cell type. The IC50 values for Compound E and GSI-34 were calculated using the extended exo-cell assay (Table 3 and FIG. 15d). […]"}}}
{"smiles": "CC(NC(=O)Cc1cc(F)cc(F)c1)C(=O)NC1N=C(c2ccccc2)c2ccccc2N(C)C1=O", "note": "(stereo not shown) [Compound E]", "values": [{"measurement": "IC50", "setting": "γ-secretase [1]", "result": 1.2, "unit": "nM"}, {"measurement": "block of photo-crosslinking of PS1-CTF and PS1-NTF by Aβ17-23BPA20-biotin", "setting": "γ-secretase [2]", "result": "completely blocked"}, {"measurement": "IC50", "setting": "γ-secretase [3]; ECL detection, read-out: Exo-Cell (nM), IC50", "result": 3.8, "unit": "nM"}, {"measurement": "IC50", "setting": "γ-secretase [3]; IC50, exo-cell assay, HTRF detection", "result": 5.4, "unit": "nM"}, {"measurement": "IC50", "setting": "γ-secretase [3]; read-out: Exo-Cell (nM), IC50, ECL detection", "result": 3.8, "unit": "nM"}, {"measurement": "IC50", "setting": "γ-secretase [4]; 24 hrs pretreatment, read-out: Extended Exo-Cell (nM), IC50", "result": 2.8, "unit": "nM"}, {"measurement": "IC50", "setting": "γ-secretase [4]; Extended Exo-Cell (nM), IC50, 24 hrs pretreatment", "result": 2.83, "unit": "nM"}]}
